Patent publication EP0573652A1, “REMEDY FOR RENAL DISEASES” (FUJISAWA PHARMACEUTICAL CO., LTD., priority 1991, dated 1992)
Like-named read-outs stand apart in the source and are kept apart here.

Columns and labels:
[1] = system: cynomolgus monkeys; test: Effects on increasing renal blood flow (anesthetized, furosemide-pretreated monkeys, electromagnetic blood flowmeter); type: in vivo; details: Dose 0.32 mg/kg intravenously; anesthetized cynomolgus monkeys given furosemide
Description: Male and female cynomolgus monkeys weighing 2.0-4.8 kg were fed with conventional diet were given furosemide 10 mg/kg subcutaneously and 5 mg/kg intravenously on the previous day and the day of dosing with the test compound respectively. The animals were anesthetized with sodium pentobarbital (20 mg/kg, i.v.) and were maintained at a stable anesthetic level by continuous infusion of the anesthetic at a rate of 6 mg/kg/hr. After fixing the animals on the bench at 37°C, right femoral artery was catheterized for recording of the mean arterial blood pressure using a pressure transducer and left femoral vein was also catheterized for injection of the drug. Left renal artery was installed with an electromagnetic probe for recording renal blood flow using an electromagnetic blood flowmeter. When blood pressure, heart rate and renal blood flow, became sufficiently stable, the test compound dissolved in physiological saline was intravenously given at a rate of 0.2 ml/kg.

[2] = system: cynomolgus monkeys; test: Diuretic effects (urine volume, urinary electrolytes, renal plasma flow, glomerular filtration rate in anesthetized monkeys); type: in vivo; details: at 15 min. after dosing, Control : 100%; for Increasing % of glomerular filtration rate: calculated from inulin concentrations; for Increasing % of renal plasma flow: calculated from paraaminohypuric acid concentrations
Description: Female cynomolgus monkeys weighing 3.2 - 3.9 kg were anesthetized with sodium pentobarbital (20 mg/kg, i.v.) and were maintained at a stable anesthetic level by continuous infusion of the anesthetic at a rate of 4 mg/kg/hr, and then right saphenous vein was catheterized for intravenous infusion. […] Under monitoring blood pressure, urine samples were taken from bladder by catheter and blood samples were taken from right brachial vein. After 90 min. when urine volume, blood, paraaminohypuric acid and inulin concentrations became stable, blood and urine samples were taken to measure concentrations of paraaminohypuric acid and inulin 45 min. before and 15, 30, 45 and 60 min. after dosing with the test compound. Urine volume and urinary electrolytes were measured and the renal plasma flow and glomerular filtration rate values were calculated from respective paraaminohypuric acid and inulin concentrations in the blood and urine samples.

[3] = Acute toxicity test; set-up: species or system rats (Crj:CD(SD) strain); details: Crj:CD(SD), rat, in vivo, iv, intravenously, observed for 14 days, probit method, read-out: LD₅₀
Description: Five rats (Crj:CD(SD) strain) of either sex were used per group. Solutions of the test compound in physiological saline were administered to rats intravenously. The rats were then observed for 14 days. The LD₅₀ values were calculated by the probit method.

SMILES | Maximum decreasing % of renal vascular resistance [1] | Maximum increasing % of renal blood flow [1] | Increasing % of Cl⁻ excretion ([2]; Dose 1.0 mg/kg) | Increasing % of K⁺ excretion ([2]; Dose 1.0 mg/kg) | Increasing % of Na⁺ excretion ([2]; Dose 1.0 mg/kg) | Increasing % of urine volume ([2]; Dose 1.0 mg/kg) | Increasing % of glomerular filtration rate ([2]; Dose 1.0 mg/kg) | Increasing % of renal plasma flow ([2]; Dose 1.0 mg/kg) | LD50 at 14 days ([3]; Female rats) | LD50 at 14 days ([3]; Male rats) | Increasing % of glomerular filtration rate ([2]; Dose 3.2 mg/kg) | Increasing % of Cl⁻ excretion ([2]; Dose 3.2 mg/kg) | Increasing % of K⁺ excretion ([2]; Dose 3.2 mg/kg) | Increasing % of Na⁺ excretion ([2]; Dose 3.2 mg/kg) | Increasing % of urine volume ([2]; Dose 3.2 mg/kg) | Increasing % of renal plasma flow ([2]; Dose 3.2 mg/kg)
CC(C)CC[C@H](O)[C@H](CC1CCCCC1)NC(=O)[C@H](Cc1c[nH]cn1)N(C)C(=O)[C@H](Cc1ccccc1)OC(=O)N(C)CCN(C)C(=O)N1CCOCC1.Cl [(2), 2(S)-[N^α-[2(S)-[N-methyl-N-[2-{N-(morpholinocarbonyl)-N-methylamino)ethyl]aminocarbonyloxy]-3-phenylpropionyl]-N^α-methyl-L-histidyl]amino-1-cyclohexyl-3(S)-hydroxy-6-methylheptane hydrochloride] | +35.5% | +33.8% | 466% | 169% | 205% | 202% | 156% | 169% | 69 mg/kg | 55 mg/kg | – | – | – | – | – | –
C[C@H](CS)C(=O)N1CCC[C@H]1C(=O)O [(A), Captopril, reference compound] | +11.5% | – | – | – | – | – | – | – | – | – | 114% | – | – | – | – | –
CC(C)CC[C@H](O)[C@H](CC1CCCCC1)NC(=O)[C@H](Cc1c[nH]cn1)N(C)C(=O)[C@H](Cc1ccccc1)OC(=O)N(C)CCC(=O)N1CCOCC1.Cl [(1), 2(S)-[N^α-[2(S)-{N-(2-morpholinocarbonylethyl)-N-methylaminocarbonyloxy}-3-phenylpropionyl]-N^α-methyl-L-histidyl]amino-1-cyclohexyl-3(S)-hydroxy-6-methylheptane hydrochloride] | +19.3% | +17.1% | – | – | – | – | – | – | 93.3 mg/kg | 81.2 mg/kg | 122% | 417% | 135% | 223% | 259% | 149%
